The source made the active and inactive calls. Unless noted, the calls are words filed in the database; no cut-off is given here.

One experiment deals with Ephrin type-A receptor 4 (Mus musculus, UniProt Q03137). As to the kind of experiment: inhibitors of EphA4 binding to KYL peptide, primary screen, biochemical, colorimetric, mouse EphA4 (AID 689). The class given is functional.
Experiment [1] addresses Muscarinic acetylcholine receptor M1 (Rattus norvegicus, UniProt P08482). Briefly: rat M1 positive allosteric modulator potency, dose response, cell-based, calcium mobilization, CHO-K1, ACh EC20 (AID 2425). Format: functional. For orientation: Calcium assays in cells follow changes in intracellular calcium, usually with a dye or a luminescent sensor.
The target of experiment [2] is T1, Fibrinogen beta chain (Homo sapiens, UniProt P02675). Briefly: Fluorescence polarization-based biochemical high throughput dose response assay to identify inhibitors that disrupt the binding of a cyclic peptide (Tn6) to the fibrin proteolytic product D-Dimer and fragment E complex [DD(E )]. A general note: Fluorescence polarisation rises when a labelled molecule tumbles more slowly, as on binding a larger partner.
T1 sequence (P02675 whole entry, the tested form may be a part): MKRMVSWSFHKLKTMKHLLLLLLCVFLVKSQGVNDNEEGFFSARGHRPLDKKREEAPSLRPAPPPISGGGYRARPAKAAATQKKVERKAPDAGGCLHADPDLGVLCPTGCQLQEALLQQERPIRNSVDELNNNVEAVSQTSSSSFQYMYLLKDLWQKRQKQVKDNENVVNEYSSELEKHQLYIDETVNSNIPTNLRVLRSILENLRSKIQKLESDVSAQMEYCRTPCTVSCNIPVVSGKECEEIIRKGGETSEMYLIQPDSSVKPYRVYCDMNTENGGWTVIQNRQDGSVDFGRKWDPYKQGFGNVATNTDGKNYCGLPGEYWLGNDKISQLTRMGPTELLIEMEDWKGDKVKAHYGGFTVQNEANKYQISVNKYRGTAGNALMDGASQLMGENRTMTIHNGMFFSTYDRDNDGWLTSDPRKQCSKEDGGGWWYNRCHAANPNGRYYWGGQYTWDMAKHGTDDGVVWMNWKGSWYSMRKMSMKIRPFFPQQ

The target in experiment [3] is T1, Fibrinogen beta chain. As to the kind of experiment: Fluorescence polarization-based biochemical high throughput dose response assay to identify inhibitors that disrupt the binding of a cyclic peptide (Tn7) to the fibrin proteolytic product D-Dimer and fragment E complex [DD(E )].
For experiment [4], the target named is Ubiquitin carboxyl-terminal hydrolase BAP1 (Homo sapiens, UniProt Q92560). As to the kind of experiment: BAP1 deubiquitinase inhibitors, dose response, biochemical (AID 714). Format: functional.
Sequence of Ubiquitin carboxyl-terminal hydrolase BAP1 (Q92560 whole entry): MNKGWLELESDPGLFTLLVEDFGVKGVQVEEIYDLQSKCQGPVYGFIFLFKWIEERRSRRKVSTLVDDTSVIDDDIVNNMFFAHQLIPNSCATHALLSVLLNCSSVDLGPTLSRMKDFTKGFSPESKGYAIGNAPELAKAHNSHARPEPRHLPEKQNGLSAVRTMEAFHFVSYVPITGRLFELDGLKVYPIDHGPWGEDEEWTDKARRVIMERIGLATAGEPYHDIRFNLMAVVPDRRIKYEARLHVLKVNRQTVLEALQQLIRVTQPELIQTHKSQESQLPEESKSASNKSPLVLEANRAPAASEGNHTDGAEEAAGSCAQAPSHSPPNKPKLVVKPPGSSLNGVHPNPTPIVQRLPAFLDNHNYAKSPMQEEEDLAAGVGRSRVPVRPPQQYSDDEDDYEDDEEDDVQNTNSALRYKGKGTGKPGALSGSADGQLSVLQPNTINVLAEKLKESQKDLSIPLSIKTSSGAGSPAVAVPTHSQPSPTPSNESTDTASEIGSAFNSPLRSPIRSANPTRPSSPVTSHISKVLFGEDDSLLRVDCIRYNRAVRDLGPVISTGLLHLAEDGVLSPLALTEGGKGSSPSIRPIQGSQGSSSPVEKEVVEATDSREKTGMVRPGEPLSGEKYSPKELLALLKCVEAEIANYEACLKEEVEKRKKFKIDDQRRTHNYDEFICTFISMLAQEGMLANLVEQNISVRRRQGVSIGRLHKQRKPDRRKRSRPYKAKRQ
Experiment [5] in a line: M. tuberculosis growth inhibition, HTS (AID 449762). The class given is functional.
A short description of experiment [6]: cytotoxicity in L-6 rat myocytes, dose response, cytotoxicity control, cell-based, plate reader, cherry-pick (AID 651896). Format: functional.
Experiment [7] is described as follows: L. donovani amastigote growth inhibition, dose response, axenic amastigotes, plate reader, cherry pick (AID 651891). Format: functional, cell-based. The conditions noted are these: Leishmania donovani.
The nature of experiment [8]: intracellular Trypanosoma cruzi inhibitors in host cells – cell-based, plate reader, cherry-pick samples, set 3, dose response (AID 651818).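 Further: compounds incubated with infected cells for about four days.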 Format: functional.
The nature of experiment [9]: T. b. rhodesiense proliferation inhibition, dose response, STIB900 strain, plate reader, cherry pick (AID 651893). The class given is functional, cell-based. The following applies: Trypanosoma brucei.
Experiment [10] can be described thus: P. falciparum blood-stage growth inhibition, dose response, NF54 strain, plate reader, dry powder (AID 651889). Format: functional, cell-based.
Experiment [11] in a line: L-6 rat myoblast cytotoxicity, dose response, counter-screen for T. cruzi inhibitor project, cell-based, plate reader, dry powder (AID 651895). The class given is functional. Background: Counterscreens check selectivity or assay interference.
Experiment [12] in a line: T. cruzi growth inhibition in host cells, dose response, cell-based, plate reader, dry powder, set 2 (AID 652275). The class given is functional.
A short description of experiment [13]: growth inhibition of intracellular T. cruzi, dose response, cell-based, plate reader, dry powder samples (AID 651845). Format: functional.
Experiment [14] in a line: T. cruzi intracellular amastigote growth inhibition, dose response, imaging, CA-I/72 strain, bovine embryo skeletal muscle, dry powder (AID 651885). The class given is functional, cell-based.
Experiment [15] is described as follows: L. donovani amastigote growth inhibition, dose response, axenic amastigotes, plate reader, dry powder (AID 651892). The class given is functional, cell-based.
Experiment [16] can be described thus: T. cruzi amastigote growth inhibition, dose response, Tulahuen strain, L-6 host cells, dry powder (AID 651890). The class given is functional, cell-based.
Experiment [17] can be described thus: T. b. rhodesiense proliferation inhibition, dose response, STIB900 strain, plate reader, dry powder (AID 651894). The class given is functional, cell-based.
In a further experiment the target is Paired box protein Pax-8 (Homo sapiens, UniProt Q06710). As to the kind of experiment: inhibitors of PAX8-driven TPO luciferase reporter, dose response, RMG-I cells, cherry-pick (AID 687027).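 Further: luciferase reporter driven by Pax8 target thyroperoxidase promoter measured by SteadyGlo luminescence.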 Format: functional, cell-based.
Sequence of Paired box protein Pax-8 (Q06710 whole entry): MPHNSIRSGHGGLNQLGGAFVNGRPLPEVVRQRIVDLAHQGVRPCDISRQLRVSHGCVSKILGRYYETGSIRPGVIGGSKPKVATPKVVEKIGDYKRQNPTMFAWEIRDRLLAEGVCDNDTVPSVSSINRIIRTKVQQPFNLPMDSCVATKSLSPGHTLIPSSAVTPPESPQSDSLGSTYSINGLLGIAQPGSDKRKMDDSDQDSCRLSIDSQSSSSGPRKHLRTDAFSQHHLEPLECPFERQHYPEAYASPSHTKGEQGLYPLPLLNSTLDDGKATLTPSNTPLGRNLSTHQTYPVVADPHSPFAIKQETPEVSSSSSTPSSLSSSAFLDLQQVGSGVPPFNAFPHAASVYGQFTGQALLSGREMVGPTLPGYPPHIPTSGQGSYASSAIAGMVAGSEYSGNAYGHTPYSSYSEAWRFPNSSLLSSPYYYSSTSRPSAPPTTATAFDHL
The nature of experiment [18]: PAX2 cell-based inhibition, dose response, selectivity assay for PAX8 inhibitor project, plate reader, dry powder samples (AID 743048).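 Further: HEK293 cells carrying a WT1 promoter luciferase reporter driven by expressed Pax2; potency is for inhibition of Pax2 driven reporter signal.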 The class given is functional.
The nature of experiment [19]: NIH:OVCAR-3 ovarian cancer cell cytotoxicity, dose response, PAX8 inhibitor project, plate reader, dry powder samples (AID 743044). Format: functional, cell-based.
Experiment [20] is described as follows: PAX5 activity inhibitors, dose response, selectivity assay for PAX8 inhibitor project, cell-based, plate reader, dry powder samples (AID 743047).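 Further: HEK293 cells carrying a Pax5 driven CD19 promoter luciferase reporter; potency of inhibitors that lower reporter luminescence.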 The class given is functional.
A short description of experiment [21]: IGROV1 ovarian cancer cell cytotoxicity, dose response, PAX8 inhibitor project, plate reader, dry powder samples (AID 743043). Format: functional, cell-based. The conditions noted are these: IGROV-1.
A short description of experiment [22]: cytotoxicity in COV434 cells, dose response, cytotoxicity control for PAX8 inhibitor project, cell-based, plate reader, dry powder, SA7 (AID 743145). The class given is functional.
Experiment [23] in a line: cytotoxicity in OV-90 ovarian cancer cells, dose response, PAX8 inhibitor project, cell-based, plate reader, dry powder, SA8 (AID 743149). Format: functional.
Experiment [24] can be described thus: cytotoxicity in OVCAR8 ovarian cancer cells, dose response, PAX8 project, cell-based, plate reader, dry powder samples (AID 743197). The class given is functional. The following applies: OVCAR-8.
Experiment [25] is described as follows: cytotoxicity dependent on PAX8, dose response, cell-based, plate reader, dry powder (AID 743049). The class given is functional.
The nature of experiment [26]: P. falciparum Dd2 growth inhibitors, dose response, SYBR Green, cherry-picked samples (AID 1159567). The class given is functional, cell-based.
A short description of experiment [27]: HepG2 cell cytotoxicity, dose response, cytotoxicity control, cherry-picked samples (AID 1159577). The class given is functional, cell-based.
A short description of experiment [28]: Concentration-dependent survival of SW480 colon cancer line, luminescence detection with CellTiter-Glo, half-maximal inhibitory concentration (AID 1117338). The class given is functional.
The nature of experiment [29]: RKO cell viability reduction, dose response, CellTiter-Glo luminescence (AID 1117322). The class given is functional.
Experiment [30] is described as follows: cytotoxicity toward HCT116 cells – cell-based, CellTiter-Glo luminescence, IC50, dose response (AID 1117332). Format: functional. The following applies: HCT-116.
Experiment [31] is described as follows: SNU-C1 cell viability reduction, dose response, CellTiter-Glo luminescence (AID 1117323). Format: functional, cell-based.
A short description of experiment [32]: cytotoxicity toward Colo320 cells – cell-based, CellTiter-Glo luminescence, IC50, dose response (AID 1117334). The class given is functional. The following applies: COLO 320.
A short description of experiment [33]: cytotoxicity toward HT-29 cells – cell-based, CellTiter-Glo luminescence, IC50, dose response (AID 1117330). Format: functional.
The nature of experiment [34]: CellTiter-Glo luminescent dose response of DLD-1 viability loss (AID 1117352). Format: functional.
The nature of experiment [35]: HCT116 cell viability decrease, GSK3B pretreatment – CellTiter-Glo, IC50, dose response (AID 1117339). Format: functional. The following applies: HCT-116.
For experiment [36], the target named is G-protein coupled receptor 183 (Homo sapiens, UniProt P32249). As to the kind of experiment: SAR confirmation of small molecule antagonists of the EBI2 receptor via a luminescent beta-arrestin assa. Format: functional.
Sequence of G-protein coupled receptor 183 (P32249 whole entry): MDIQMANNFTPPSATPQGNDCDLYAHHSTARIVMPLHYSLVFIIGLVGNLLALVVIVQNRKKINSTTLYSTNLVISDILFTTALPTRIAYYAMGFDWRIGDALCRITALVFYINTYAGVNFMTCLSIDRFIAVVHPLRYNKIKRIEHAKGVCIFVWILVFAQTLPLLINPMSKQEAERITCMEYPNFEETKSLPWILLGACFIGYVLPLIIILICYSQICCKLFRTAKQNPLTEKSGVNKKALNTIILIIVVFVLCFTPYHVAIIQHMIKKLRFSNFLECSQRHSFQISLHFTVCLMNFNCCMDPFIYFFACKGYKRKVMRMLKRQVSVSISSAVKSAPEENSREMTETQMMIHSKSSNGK
Experiment [37] can be described thus: P. falciparum Dd2 growth inhibitors, dose response, SYBR Green, dry powder samples, set 4 (AID 1159572). The class given is functional, cell-based.
Experiment [38] in a line: Orthopox viral replication plaque formation Measured in Cell-Based and Microorganism Combination System Using Imaging - 2142-05_Inhibitor_Dose_DryPowder_Activity. Format: functional.
The target of experiment [39] is T2, Oxysterols receptor LXR-beta (Homo sapiens, UniProt P55055).
T2 sequence (P55055 whole entry): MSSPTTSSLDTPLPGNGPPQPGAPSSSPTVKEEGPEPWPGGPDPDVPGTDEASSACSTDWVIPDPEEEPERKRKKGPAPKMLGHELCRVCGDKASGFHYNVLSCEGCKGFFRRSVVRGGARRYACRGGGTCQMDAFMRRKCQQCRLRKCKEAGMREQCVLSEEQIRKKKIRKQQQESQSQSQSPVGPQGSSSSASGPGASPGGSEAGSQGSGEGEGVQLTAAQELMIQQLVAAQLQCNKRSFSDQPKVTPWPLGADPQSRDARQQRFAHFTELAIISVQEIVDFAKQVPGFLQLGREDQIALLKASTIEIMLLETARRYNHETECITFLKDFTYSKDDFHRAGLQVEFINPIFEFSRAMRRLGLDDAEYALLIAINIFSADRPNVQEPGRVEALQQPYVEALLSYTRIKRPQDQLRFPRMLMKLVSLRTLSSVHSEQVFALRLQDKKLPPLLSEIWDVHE
The class given is functional, cell-based.

Experiment [40] has as its target T2, Oxysterols receptor LXR-beta. Format: functional, cell-based. The source holds these as a separate data set.
Experiment [41] in a line: HeLa 2N DNA content increase, dose response, cell-based, IC50 (AID 1117349). The class given is functional.
Experiment [42] can be described thus: HeLa 4N DNA content increase, dose response, cell-based, IC50 (AID 1117351). Format: functional.

Sequence of Ephrin type-A receptor 4 (Q03137 whole entry): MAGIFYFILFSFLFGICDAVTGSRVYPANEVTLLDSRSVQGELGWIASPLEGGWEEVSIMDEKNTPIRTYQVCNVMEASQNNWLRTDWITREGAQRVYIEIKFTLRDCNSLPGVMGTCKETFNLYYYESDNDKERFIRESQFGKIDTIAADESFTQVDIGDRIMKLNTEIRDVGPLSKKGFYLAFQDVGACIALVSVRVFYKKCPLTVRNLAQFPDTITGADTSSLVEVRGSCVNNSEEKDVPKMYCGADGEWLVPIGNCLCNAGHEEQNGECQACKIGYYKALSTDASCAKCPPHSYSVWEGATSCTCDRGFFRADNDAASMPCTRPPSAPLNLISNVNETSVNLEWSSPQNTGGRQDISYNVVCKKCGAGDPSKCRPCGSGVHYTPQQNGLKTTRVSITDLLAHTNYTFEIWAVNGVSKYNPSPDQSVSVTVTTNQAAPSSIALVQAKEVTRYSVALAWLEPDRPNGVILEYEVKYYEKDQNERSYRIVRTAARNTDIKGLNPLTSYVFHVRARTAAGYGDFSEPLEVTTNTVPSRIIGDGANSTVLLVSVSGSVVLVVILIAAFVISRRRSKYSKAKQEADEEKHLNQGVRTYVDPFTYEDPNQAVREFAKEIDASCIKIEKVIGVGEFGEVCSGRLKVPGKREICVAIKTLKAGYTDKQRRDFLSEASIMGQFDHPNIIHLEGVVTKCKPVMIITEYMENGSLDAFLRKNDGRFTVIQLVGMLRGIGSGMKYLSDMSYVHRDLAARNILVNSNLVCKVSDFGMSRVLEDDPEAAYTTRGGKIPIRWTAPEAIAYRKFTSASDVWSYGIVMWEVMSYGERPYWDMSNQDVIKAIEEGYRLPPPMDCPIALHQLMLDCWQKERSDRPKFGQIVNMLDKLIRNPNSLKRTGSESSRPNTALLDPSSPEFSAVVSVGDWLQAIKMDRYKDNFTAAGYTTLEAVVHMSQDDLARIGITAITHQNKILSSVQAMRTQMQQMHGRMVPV
Sequence of Muscarinic acetylcholine receptor M1 (P08482 whole entry, the tested form may be a part): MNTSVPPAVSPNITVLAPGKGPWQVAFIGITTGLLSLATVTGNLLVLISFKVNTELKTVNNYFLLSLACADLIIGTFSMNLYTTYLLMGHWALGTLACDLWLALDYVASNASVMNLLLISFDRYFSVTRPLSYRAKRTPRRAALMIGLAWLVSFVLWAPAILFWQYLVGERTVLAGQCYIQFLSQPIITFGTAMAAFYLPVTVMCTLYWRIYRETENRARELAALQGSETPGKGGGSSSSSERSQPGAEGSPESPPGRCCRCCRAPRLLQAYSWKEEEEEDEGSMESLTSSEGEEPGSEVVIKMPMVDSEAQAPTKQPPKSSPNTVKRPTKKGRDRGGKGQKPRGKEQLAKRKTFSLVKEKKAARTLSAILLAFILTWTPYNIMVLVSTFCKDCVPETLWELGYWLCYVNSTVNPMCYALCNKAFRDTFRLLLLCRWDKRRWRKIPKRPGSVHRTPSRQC

Consider `CCCCN(CCCC)c1nc2ccccc2nc1/C(C#N)=C(/O)OCC`, for which the IC50 on Ephrin type-A receptor 4 was 5.65 µM (active).

For the molecule `Cc1cc(NC(=O)CS(=O)(=O)c2cn(Cc3cc(Br)ccc3F)c3ccccc23)no1`, the EC50 in experiment [1] was 1.42 µM (active).

For the molecule `Cc1cc2c(cc1S(=O)(=O)N1CCN(c3cccc(C)c3C)CC1)OCCN2C`, the figures for the IC50 at Fibrinogen beta chain [2] and at Fibrinogen beta chain [3] were 10.1 µM (inactive) and > 83.3 µM (inactive), respectively.

For `O=C(CSc1nc2c(c(=O)n1-c1ccc(Cl)cc1)SCC2)Nc1ccc2c(c1)OCCO2`, in [4], the IC50 is reported as 38.6 µM (not active).

Turning to `CCCNC(=O)NC(=O)COc1ccc2oc3ccccc3c2c1`, the IC50 in experiment [5] was > 100 µM (active).

In the case of `C[C@@H]1CN([C@H](C)CO)C(=O)c2cccc(NC(=O)c3ccncc3)c2O[C@@H]1CN(C)Cc1ccc(Oc2ccccc2)cc1`, the IC50 is 44.2 µM (inactive) in experiment [6]; > 100 µM (inactive) in experiment [7]; 2.63 µM (inactive) in experiment [9]; 2.23 µM (inactive) in experiment [10]; 64.6 µM (inactive) in experiment [11]; 2 µM (active) in experiment [14]. Also, the values for the IC50 in [15], in experiment [16] and in experiment [17] were > 100 µM (inactive), 1.16 µM (active) and 1.31 µM (inactive), respectively. The concentration at half-maximal activity (AC50) in experiment [8] was 1.05 µM (active); in [12], 0.309 µM (active); in experiment [13], 0.286 µM (active).

For the molecule `COc1cccc(C#Cc2ccc([C@H]3[C@@H](CO)N(C(=O)c4ccccn4)[C@H]3C#N)cc2)c1`, the AC50 on Paired box protein Pax-8 is 2.41 µM (active); in experiment [18] it was 9.59 µM (active); in experiment [19], 14.6 µM (active); in experiment [20] it was 7.82 µM (active); in experiment [21], 17.8 µM (active); in experiment [22] it was 18.4 µM (active). The AC50 in experiment [23] is 24.1 µM (active); in experiment [24], 51.4 µM (active); in experiment [25], 10.4 µM (active); in experiment [26], 1.27 µM (active); in experiment [27], > 39 µM (inactive).

Regarding `CCCCCCCC[N+](C)(C)CCCCCCCC`, the IC50 is 3.46 µM (active) in [28]; 2.18 µM (active) in [29]; 6.24 µM (inactive) in experiment [30]; 1.44 µM (active) in [31]; 4.66 µM (active) in [32]; 4 µM (active) in experiment [33]. Further, the IC50 was 3.22 µM (active) in [34] and 3.69 µM (active) in experiment [35].

On to `Cc1ccccc1/C=C/C(=O)N1CCN(S(=O)(=O)c2ccc(Br)cc2)CC1`, for which the IC50 in experiment [36] is 0.187 µM (active).

In the case of `COc1ccc2c3c([nH]c2c1)[C@H](CO)N(C(C)=O)CC31CCN(C(=O)c2cccc(F)c2)CC1`, the AC50 in experiment [37] was 14.1 µM (active).

Regarding `CO[C@H]1CN(C)C(=O)c2ccc(NC(=O)c3ccc(F)cc3)cc2OC[C@H](C)N(C(=O)c2ccc(F)cc2)C[C@@H]1C`, the half-maximal activity concentration (AC50) in experiment [38] is 5.72 µM (active).

Regarding `O=c1[nH]c(=O)n([C@H]2C[C@H](O)[C@@H](CO)O2)cc1Br` [BROXURIDINE], the EC50 in [39] was > 67.5 µM (inactive); in [40], > 67.6 µM (inactive); in “cells”, > 67.5 µM (inactive). Further, the IC50 in experiment [41] and in experiment [42] was > 10 µM (inactive) in each case.

For orientation: IC50 means the point on the concentration scale where inhibition reaches its midpoint. As usually defined, the EC50 is the concentration giving half of the maximal effect. As usually defined, the AC50 is the midpoint of the concentration-response curve, whichever way the signal moves.

The values are drawn from ChEMBL document CHEMBL1201862, “PubChem BioAssay data set” (2004).
